Here are results for 15 compounds from article PMC4790384, “Position-Dependent Influence of the Three Trp Residues on the Membrane Activity of the Antimicrobial Peptide, Tritrpticin” (Antibiotics, 2014).

In this experiment the test system is E. coli ATCC 25922. The class given is cell-based, Escherichia coli. The procedure:
The minimum inhibitory concentration (MIC) of Tritrp1 and its Trp-substituted analogs against E. coli ATCC 25922 was measured by the standard broth microdilution method. Bacteria (5 × 10^5 CFU/mL) were incubated overnight at 37 °C in Mueller-Hinton broth (MHB) and in the presence of peptides diluted in a two-fold concentration series ranging from 0.25–128 µM in a 96-well polypropylene plate. The reported MIC values correspond to the minimum peptide concentration where bacterial growth was not observed. After overnight incubation, 10 µL from the first three wells without bacterial growth for each peptide in the MIC plate were diluted 1:10^6 in MHB, and 100 µL of this dilution was plated in MHB-agar. After incubation overnight at 37 °C, the minimum bactericidal concentration (MBC) was reported as the minimum peptide concentration where no colony formation was detected.

Converted amounts (≈) assume the structure as drawn. Ends that are not written are not given here.

The term MBC denotes the lowest tested concentration that kills the bacteria rather than only halting them. Read a high MBC as less potent killing. In general, MIC refers to the lowest concentration found to suppress growth. Read a low MIC as inhibition by little substance. Take `CC(C)C[C@H](NC(=O)[C@H](Cc1ccccc1)NC(=O)[C@@H]1CCCN1C(=O)[C@H](Cc1c[nH]c2ccccc12)NC(=O)[C@H](Cc1c[nH]c2ccccc12)NC(=O)[C@H](Cc1c[nH]c2ccccc12)NC(=O)[C@@H]1CCCN1C(=O)[C@H](Cc1ccccc1)NC(=O)[C@H](CCCNC(=N)N)NC(=O)[C@H](CCCNC(=N)N)NC(=O)[C@@H](N)C(C)C)C(=O)N[C@@H](CCCNC(=N)N)C(=O)N[C@@H](CCCNC(=N)N)C(N)=O` [Tritrp1, reference compound]: the MBC was found to be 4 µM (≈ 7.61 µg/mL) and the MIC was determined as 4 µM (≈ 7.61 µg/mL).

Consider VRRFPAAAPFLRR-NH2 [A-Tritrp], for which the MBC was >128 µM and the MIC is listed as >128 µM.

The compound VRRFPAAWPFLRR-NH2 [Peptide W67A] displayed an MBC of 64 to 128 µM and an MIC of 64 to 128 µM.

VRRFPAWAPFLRR-NH2 [Peptide W68A] yielded an MBC of 64 to 128 µM and an MIC of 64 to 128 µM.

For the compound VRRFPAWWPFLRR-NH2 [Peptide W6A], the MBC was in the range of 32 to 64 µM and the MIC lay within 32 to 64 µM.

VRRFPWAAPFLRR-NH2 [Peptide W78A] yielded an MBC of 64 to 128 µM and an MIC of 64 to 128 µM.

VRRFPWAWPFLRR-NH2 [Peptide W7A] gave an MBC of 16 µM and an MIC of 16 µM.

VRRFPWWAPFLRR-NH2 [Peptide W8A]: the MBC is 8 µM and the MIC came to 8 µM.

VRRFPWWYPFLRR-NH2 [Peptide W8Y] returned an MBC of 4 µM and a minimum inhibitory concentration (MIC) of 4 µM.

Turning to VRRFPWYWPFLRR-NH2 [Peptide W7Y], the MBC was determined as 8 µM and the MIC stood at 8 µM.

VRRFPWYYPFLRR-NH2 [Peptide W78Y]: the MBC stood at 16 µM and the MIC is on record as 16 µM.

The compound VRRFPYWWPFLRR-NH2 [Peptide W6Y] showed an MBC of 16 µM and an MIC of 16 µM.

VRRFPYWYPFLRR-NH2 [Peptide W68Y]: the MBC came out at 16 µM and the MIC was found to be 16 µM.

VRRFPYYWPFLRR-NH2 [Peptide W67Y] came in with an MBC of 32 µM and an MIC of 32 µM.

The compound VRRFPYYYPFLRR-NH2 [Y-Tritrp] returned a minimum bactericidal concentration (MBC) of 16 to 32 µM.
